Values joined by “and” are separate entries in the source; they are usually repeats but may differ in a detail not shown here. Identical values can stand only once. Inconclusive results and toxic doses are left out. Cut-off read from the data, not from the text of the source: active = T/C of 150% or more; inactive = T/C below 125%.
System: L1210 leukemia ip in BDF1 mice, survival T/C
Test: NCI In Vivo Anticancer Drug Screen. Data for tumor model L1210 Leukemia (intraperitoneal) in B6D2F1 (BDF1) mice
Conditions: endpoint: mean survival time, higher = longer survival
Procedure, shortened: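 Read-out is survival time, reported as the treated-group measurement over the vehicle-control measurement.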

[1] = dose: 100.0 mg/kg/injection, schedule: Q01DX001 (ip), vehicle: carboxymethylcellulose (CMC)
[2] = dose: 200.0 mg/kg/injection, schedule: Q01DX001 (ip), vehicle: carboxymethylcellulose (CMC)
[3] = dose: 400.0 mg/kg/injection, schedule: Q01DX001 (ip), vehicle: carboxymethylcellulose (CMC)
[4] = dose: 100.0 mg/kg/injection, schedule: Q01DX001 (ip), vehicle: saline
[5] = dose: 200.0 mg/kg/injection, schedule: Q01DX001 (ip), vehicle: saline
[6] = dose: 400.0 mg/kg/injection, schedule: Q01DX001 (ip), vehicle: saline
[7] = dose: 100.0 mg/kg/injection, schedule: Q01DX001 (ip), vehicle: Klucel (hydroxypropylcellulose) (HPC)
[8] = dose: 100.0 mg/kg/injection, schedule: Q01DX009 (ip), vehicle: saline with Tween-80
[9] = dose: 100.0 mg/kg/injection, schedule: Q04DX003 (ip), vehicle: saline with Tween-80
[10] = dose: 200.0 mg/kg/injection, schedule: Q04DX003 (ip), vehicle: saline with Tween-80
[11] = dose: 200.0 mg/kg/injection, schedule: Q01DX009 (ip), vehicle: saline with Tween-80
[12] = dose: 400.0 mg/kg/injection, schedule: Q01DX009 (ip), vehicle: saline with Tween-80
[13] = dose: 75.0 mg/kg/injection, schedule: Q01DX001 (ip), vehicle: saline
[14] = dose: 100.0 mg/kg/injection, schedule: Q01DX009 (ip), vehicle: Klucel (hydroxypropylcellulose) (HPC)
[15] = dose: 100.0 mg/kg/injection, schedule: Q04DX003 (ip), vehicle: Klucel (hydroxypropylcellulose) (HPC)
[16] = dose: 200.0 mg/kg/injection, schedule: Q01DX009 (ip), vehicle: Klucel (hydroxypropylcellulose) (HPC)
[17] = dose: 200.0 mg/kg/injection, schedule: Q04DX003 (ip), vehicle: Klucel (hydroxypropylcellulose) (HPC)
[18] = dose: 400.0 mg/kg/injection, schedule: Q01DX009 (ip), vehicle: Klucel (hydroxypropylcellulose) (HPC)
[19] = dose: 400.0 mg/kg/injection, schedule: Q04DX003 (ip), vehicle: Klucel (hydroxypropylcellulose) (HPC)

Measured: T/C

CN(C)c1ccc(N=C2C(c3ccccc3)=CC(c3ccccc3)=C2c2ccccc2)cc1
inactive: dose: 50.0 mg/kg/injection, schedule: Q01DX001 (ip), vehicle: carboxymethylcellulose (CMC) 89 % of control | [1] 91 % of control | [2] 94 % of control | [3] 97 % of control

O=P(CCl)(CCCl)CCCl
inactive: dose: 50.0 mg/kg/injection, schedule: Q04DX003 (ip), vehicle: saline 101 % of control | dose: 100.0 mg/kg/injection, schedule: Q04DX003 (ip), vehicle: saline 103 % of control | dose: 200.0 mg/kg/injection, schedule: Q04DX003 (ip), vehicle: saline 103 % of control | dose: 400.0 mg/kg/injection, schedule: Q04DX003 (ip), vehicle: saline 89 % of control

CC(C)(C)C#CCCl
inactive: [4] 96 % of control | dose: 100.0 mg/kg/injection, schedule: Q01DX009 (ip), vehicle: saline 116 % of control | [5] 105 % of control | dose: 200.0 mg/kg/injection, schedule: Q01DX009 (ip), vehicle: saline 97 % of control | [6] 94 % of control

CC1CCCN(N=Nc2ccc(Br)cc2-c2nc(N)c3cc(Br)ccc3n2)C1 (centres undefined)
inactive: dose: 25.0 mg/kg/injection, schedule: Q01DX001 (ip), vehicle: Klucel (hydroxypropylcellulose) (HPC) 97 % of control | dose: 50.0 mg/kg/injection, schedule: Q01DX001 (ip), vehicle: Klucel (hydroxypropylcellulose) (HPC) 105 % of control | [7] 102 % of control

CCN(CC)CCC(=O)Nc1cccc2c1C(=O)c1c(c(O)c3ccccc3c1O)C2=O
inactive: dose: 50.0 mg/kg/injection, schedule: Q01DX009 (ip), vehicle: saline with Tween-80 105 % of control | [8] 91 % of control | [9] 105 % of control | [10] 90 % of control

O=C(N/N=C\c1cc(=O)[nH]c(=O)[nH]1)c1ccccc1
inactive: [4] 100 % of control

O=C(CCC(=O)c1cccc([N+](=O)[O-])c1)NNc1ccc([N+](=O)[O-])cc1[N+](=O)[O-]
inactive: [8] 95 % of control | [11] 105 % of control | [12] 92 % of control

O=C(CN1CCCCC1)Nc1ccc(S(=O)(=O)c2ccc([N+](=O)[O-])cc2)cc1
inactive: [13] 87 % of control

O=C(Nc1ccc([N+](=O)[O-])cc1Cl)c1ccc(C(=O)Nc2ccc([N+](=O)[O-])cc2Cl)cc1
inactive: [4] 96 % of control | [5] 94 % of control | [6] 91 % of control

COc1ccc(C2C(=O)NN=C2C)cc1 (centres undefined)
inactive: [1] 96 % of control | [2] 96 % of control | [3] 102 % of control

CCOc1ccc2nc(/C=C\c3cc4c5c(c3)CCCN5CCC4)ccc2c1
inactive: [14] 87 % of control | [15] 95 % of control | [16] 97 % of control | [17] 98 % of control | [18] 97 % of control | [19] 98 % of control

N#CCC[P+](CCC#N)(CCC#N)CCCC[P+](CCC#N)(CCC#N)CCC#N
inactive: [9] 94 % of control | [10] 91 % of control | dose: 400.0 mg/kg/injection, schedule: Q04DX003 (ip), vehicle: saline with Tween-80 94 % of control

CC(=O)N(O)CCCCCNC(=O)CCC(=O)N(O)CCCCCNC(=O)CCC(=O)N(O)CCCCCN
inactive: dose: 83.0 mg/kg/injection, schedule: Q03HX024 (ip), vehicle: water 103 % of control | dose: 125.0 mg/kg/injection, schedule: Q03HX024 (ip), vehicle: water 102 % of control | dose: 420.0 mg/kg/injection, schedule: Q03HX024 (ip), vehicle: clinical formulation 102 % of control | dose: 420.0 mg/kg/injection, schedule: Q03HX024 (ip), vehicle: water 95 % of control and 103 % of control

Oc1ccc(C/C=C/c2ccccc2)cc1
inactive: [8] 98 % of control | [11] 96 % of control | [12] 102 % of control

O=C1N(Br)C(=O)C(c2ccc(Cl)cc2)(c2ccc(Cl)cc2)N1Br
inactive: dose: 15.0 mg/kg/injection, schedule: Q01DX015 (ip), vehicle: carboxymethylcellulose (CMC) 89 % of control | dose: 30.0 mg/kg/injection, schedule: Q01DX015 (ip), vehicle: carboxymethylcellulose (CMC) 93 % of control | dose: 60.0 mg/kg/injection, schedule: Q01DX015 (ip), vehicle: carboxymethylcellulose (CMC) 88 % of control | [1] 95 % of control | dose: 100.0 mg/kg/injection, schedule: Q01DX009 (ip), vehicle: saline sonified 113 % of control | [15] 99 % of control | dose: 120.0 mg/kg/injection, schedule: Q01DX015 (ip), vehicle: carboxymethylcellulose (CMC) 93 % of control | [2] 90 % of control | dose: 200.0 mg/kg/injection, schedule: Q01DX009 (ip), vehicle: saline sonified 106 % of control | [17] 94 % of control | dose: 240.0 mg/kg/injection, schedule: Q01DX015 (ip), vehicle: carboxymethylcellulose (CMC) 95 % of control | dose: 360.0 mg/kg/injection, schedule: Q01DX015 (ip), vehicle: carboxymethylcellulose (CMC) 98 % of control | [3] 104 % of control | dose: 400.0 mg/kg/injection, schedule: Q01DX009 (ip), vehicle: saline sonified 99 % of control | [19] 100 % of control

CC(C)(C)C(=O)CC(=O)C(C)(C)C.CC(C)(C)C(=O)CC(=O)C(C)(C)C.CC(C)(C)C(=O)CC(=O)C(C)(C)C.[Pr]
inactive: dose: 100.0 mg/kg/injection, schedule: Q01DX001 (ip), vehicle: saline with Tween-80 100 % of control | [8] 98 % of control | dose: 200.0 mg/kg/injection, schedule: Q01DX001 (ip), vehicle: saline with Tween-80 97 % of control | [11] 88 % of control | dose: 400.0 mg/kg/injection, schedule: Q01DX001 (ip), vehicle: saline with Tween-80 89 % of control

COc1ccc(N2C(=O)C3C(C2=O)C2(Cl)C(Cl)=C(Cl)C3(Cl)C2(Cl)Cl)c(OC)c1 (centres undefined)
inactive: [14] 90 % of control | [15] 101 % of control | [16] 95 % of control | [17] 104 % of control | [18] 93 % of control | [19] 92 % of control

CC[N+](C)(C)CC(C)C
inactive: [13] 104 % of control | dose: 150.0 mg/kg/injection, schedule: Q01DX001 (ip), vehicle: saline 107 % of control

CC(C)OC(=S)SCC(=O)c1ccc(C(F)(F)F)cc1
inactive: dose: 100.0 mg/kg/injection, schedule: Q04DX002 (ip), vehicle: Klucel (hydroxypropylcellulose) (HPC) 96 % of control | dose: 200.0 mg/kg/injection, schedule: Q04DX002 (ip), vehicle: Klucel (hydroxypropylcellulose) (HPC) 92 % of control | dose: 400.0 mg/kg/injection, schedule: Q04DX002 (ip), vehicle: Klucel (hydroxypropylcellulose) (HPC) 92 % of control

COP(=O)(OCCCCCl)C(Cl)(Cl)Cl (centres undefined)
inactive: [4] 102 % of control | [5] 102 % of control | [6] 104 % of control

Cc1cc(=O)[nH]c(=S)[nH]1
inactive: [7] 90 % of control | dose: 200.0 mg/kg/injection, schedule: Q01DX001 (ip), vehicle: Klucel (hydroxypropylcellulose) (HPC) 101 % of control | dose: 400.0 mg/kg/injection, schedule: Q01DX001 (ip), vehicle: Klucel (hydroxypropylcellulose) (HPC) 92 % of control

Source: PubChem BioAssay AID248 (DTP/NCI, 2004)
